PubChem BioAssay (NCI)
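Briefly, cells in 96-well plates were exposed to five compound concentrations for 48 h, and endpoints were estimated by linear interpolation. The concentration for 50% growth inhibition is given as GI50. TGI denotes the concentration required for complete inhibition of growth.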

Columns and labels:
Assay in all cases: NCI tumour cell line growth inhibition, 48 h
[1] = test system: 786-0 renal
[2] = test system: NCI-H23 lung
[3] = test system: SNB-19 CNS
[4] = test system: MDA-MB-231 breast
[5] = test system: HCT-15 colon
[6] = test system: SW-620 colon
[7] = test system: SF-268 CNS
[8] = test system: NCI-H226 lung
[9] = test system: PC-3 prostate
[10] = test system: U251 CNS
[11] = test system: RPMI-8226 leukemia
[12] = test system: M14 melanoma
[13] = test system: KM12 colon
[14] = test system: EKVX NSCLC
[15] = test system: HOP-92 NSCLC
[16] = test system: NCI-H460 lung
[17] = test system: MALME-3M melanoma
[18] = test system: SK-OV-3 ovarian
[19] = test system: A549 NSCLC
[20] = test system: OVCAR-8 ovarian
[21] = test system: SK-MEL-5 melanoma
[22] = test system: SNB-75 CNS
[23] = test system: CAKI-1 renal
[24] = test system: TK-10 renal
[25] = test system: IGROV1 ovarian
[26] = test system: NCI-H522 lung
[27] = test system: COLO 205 colon

`COC(=O)c1c(O)ccc2[nH]c(C)c(C#N)c12` gave a GI50 [1] of 31.6 µM, a TGI [1] of over 100 µM and a GI50 [2] of 77.1 µM. The TGI [2] was over 100 µM, the GI50 [3] was 77.7 µM and the TGI [3] was over 100 µM. It also gave a GI50 [4] of 39.9 µM, a TGI [4] of over 100 µM and a GI50 [5] of 42.1 µM. For the same compound, the TGI [5] was over 100 µM, the GI50 [6] was 45.4 µM and the TGI [6] was over 100 µM. For the same compound, the GI50 [7] was 40 µM, the TGI [7] was over 100 µM and the GI50 [8] was 28.5 µM. The TGI [8] was 70.6 µM, the GI50 [9] was 38.7 µM and the TGI [9] was over 100 µM. The GI50 [10] was 44.8 µM, the TGI [10] was over 100 µM and the GI50 [11] was 27.3 µM. It also gave a TGI [11] of over 100 µM, a GI50 [12] of 25.9 µM and a TGI [12] of over 100 µM. It also gave a GI50 [13] of 39.5 µM, a TGI [13] of over 100 µM and a GI50 [14] of 96.2 µM. For the same compound, the TGI [14] was over 100 µM, the GI50 [15] was 30.3 µM and the TGI [15] was 91.9 µM. The GI50 [16] was 37.3 µM, the TGI [16] was over 100 µM and the GI50 [17] was 47.9 µM. It also gave a TGI [17] of 94 µM, a GI50 [18] of 97.5 µM and a TGI [18] of over 100 µM. The GI50 [19] was 41.1 µM, the TGI [19] was over 100 µM and the GI50 [20] was 43.2 µM. For the same compound, the TGI [20] was over 100 µM, the GI50 [21] was 24.3 µM and the TGI [21] was over 100 µM. It also gave a GI50 [22] of 87.9 µM, a TGI [22] of over 100 µM and a GI50 [23] of 30.4 µM. It also gave a TGI [23] of 90.1 µM, a GI50 [24] of 8.8 µM and a TGI [24] of 49.2 µM. It also gave a GI50 [25] of 67.2 µM, a TGI [25] of over 100 µM and a GI50 [26] of 83.4 µM. For the same compound, the TGI [26] was over 100 µM, the GI50 [27] was 88.5 µM and the TGI [27] was over 100 µM.
